Entries after “also recorded” stand apart in the source; their conditions may differ.
What was measured:
S1P1 = S1P1 (Homo sapiens (Human), UniProt P21453); test: Receptor [35S]GTPγS binding assay (S1P1 GTPγS), membranes from S1P1/CHO cells; type: biochemical; details: result in words
Procedure: Compounds were loaded in a 384 Falcon v-bottom plate (0.5 μl/well in a 11 point, 3-fold dilution). Membranes prepared from S1P1/CHO cells or EDG3-Gal5-bla HEK293T cells (EDG3 equivalent S1P3) were added to the compound plate (40 μl/well, final protein 3 μg/well) with MULTIDROP®. […] 40 μl of the [^35S] GTP solution was added to the compound plate with a final concentration of 0.2 nM. The reaction was kept at room temperature for 45 min. At the end of incubation, all the mixtures in the compound plate were transferred to Millipore 384-well FB filter plates via the VELOCITY11® Vprep liquid handler. The filter plate was washed with water 4 times by using the manifold Embla plate washer and dried at 60° C. for 45 min. MicroScint 20 scintillation fluid (30 μl) was added to each well for counting on the Packard TOPCOUNT®.
A larger value for the GTPγS S1P3 EC50 value indicated less activity in the GTPγS S1P3 binding assay.

S1P3 (EDG3) = S1P3 (EDG3) (Homo sapiens (Human), UniProt Q99500); test: Receptor [35S]GTPγS binding assay (S1P3 GTPγS), membranes from EDG3-Gal5-bla HEK293T cells; type: biochemical; details: GTPγS S1P1 versus S1P3, result in words
Procedure: Compounds were loaded in a 384 Falcon v-bottom plate (0.5 μl/well in a 11 point, 3-fold dilution). Membranes prepared from S1P1/CHO cells or EDG3-Gal5-bla HEK293T cells (EDG3 equivalent S1P3) were added to the compound plate (40 μl/well, final protein 3 μg/well) with MULTIDROP®. [^35S]GTP (1250 Ci/mmol, Perkin Elmer) was diluted in assay buffer: 20 mM HEPES, pH7.5, 10 mM MgCl2, 150 mM NaCl, 1 mM EGTA(ethylene glycol tetraacetic acid), 1 mM DTT (Dithiothreitol), 10 μM GDP, 0.1% fatty acid free BSA, and 10 μg/ml Saponin to 0.4 nM. 40 μl of the [^35S] GTP solution was added to the compound plate with a final concentration of 0.2 nM. The reaction was kept at room temperature for 45 min. At the end of incubation, all the mixtures in the compound plate were transferred to Millipore 384-well FB filter plates via the VELOCITY11® Vprep liquid handler. The filter plate was washed with water 4 times by using the manifold Embla plate washer and dried at 60° C. for 45 min. MicroScint 20 scintillation fluid (30 μl) was added to each well for counting on the Packard TOPCOUNT®.
A smaller value for GTPγS S1P EC50 value indicated greater activity for the compound in the GTPγS S1P binding assay. A larger value for the GTPγS S1P3 EC50 value indicated less activity in the GTPγS S1P3 binding assay. […]

[1] = test system: adjuvant-induced arthritis, hind paw volume; test: Rat adjuvant induced arthritis assay (AA); type: in vivo, Lewis rats; details: Lewis rat, prophylactic oral dosing regimen
Procedure: The rat adjuvant-induced arthritis model is an animal model for human rheumatoid arthritis. Male Lewis rats (150-175 g; Harlan, n=8 treatment group) were immunized at the base of the tail with 100 μl of 10 mg/ml freshly ground Mycobacterium butyricum (Difco Laboratories) in incomplete Freund's adjuvant (sigma). Animals were dosed once daily with the test article (as a solution or suspension in the vehicle) or vehicle alone (polyethylene glycol 300, “PEG300”) starting from the day of immunization. The volumes of their hind paws were measured in a water displacement plethysmometer (Ugo Basile, Italy). The baseline paw measurements were taken before onset of the disease (between day 7 to day 10). The paw measurements were then taken three times a week until the end of the study on day 20 to 21. All procedures involving animals were reviewed and approved by the Institutional Animal Care Use Committee.

[2] = test system: experimental autoimmune encephalomyelitis, clinical score; test: Rat experimental autoimmune encephalomyelitis (EAE); type: in vivo, Lewis rats; details: Lewis rat, prophylactic oral dosing regimen
Procedure: Female Lewis rats (150-200 g; Harlan) were immunized at the base of the tail with 0.1 ml of a complete Freund's adjuvant emulsion containing 0.5 mg/mL guinea pig myelin basic protein (Genemed Synthesis) and 2 mg/mL Mycobacterium butyricum (Difco). Beginning on Day 7, rats (n=11/group) were scored individually at least 3×/wk according to the following scheme: [table] Average clinical scores were calculated for each treatment group on each day of assessment.

[3] = test system: experimental autoimmune encephalomyelitis, clinical score; test: Mouse experimental autoimmune encephalomyelitis assay (EAE); type: in vivo; details: C57Bl/6 mice, prophylactic oral dosing regimen
anti-dsDNA antibodies = test: MRL/lpr lupus model: anti-dsDNA antibody titers (ELISA); type: in vivo; details: MRL/lpr mice, p.o. daily
Procedure: (§1) MRL/lpr is a spontaneous model of lupus. Male MRL/lpr mice (Jackson Laboratory) at the age of 12-14 weeks were enrolled for the study (N=12). Mice were dosed p.o. daily with vehicle (18.4% (w/v) hydroxypropyl-b-cyclodextrin in 13.8 mM citric acid) or with Example 681 at 0.06, 0.3, 1.5 mg/kg. Mice were bled every other week for anti-dsDNA antibodies measured by ELISA using pooled serum from diseased MRL/lpr mice as a positive comparator in each assay. The data were expressed in arbitrary units as a ratio of the titer of the test serum to the titer of the pooled MRL/lpr immune serum.

kidney histology score = test: MRL/lpr lupus model: kidney histological analysis; type: in vivo; details: MRL/lpr mice, p.o. daily
Procedure: as §1
At the end of study, one kidney was collected into 10% neutral buffered formalin and ZincTris fixatives. Fixed tissues were processed into paraffin blocks, sectioned at […], and stained with H&E or PASH. Kidney sections were graded using following criteria: Glomerular Damage: 1. Mesangial matrix thickening, cell proliferation, 2. Crescent formation, cellular deposits/casts in Bowman's space, 3. Cellular infiltration, mononuclear cells in glomerular tufts, 4. Fibrosis of Bowman's capsule. Tubular damage: 1. Infiltration of mononuclear cells, 2. Severity of tubular damage, 3. Protein casts. Tubulo-interstitial damage: 1. Fibrosis, 2. Infiltration of mononuclear cells. Each subcategory was assigned a score from 0-4, with the scores for glomerular indices representing the mean from 20 glomeruli per kidney. […]

Sequence of S1P1 (P21453 whole entry): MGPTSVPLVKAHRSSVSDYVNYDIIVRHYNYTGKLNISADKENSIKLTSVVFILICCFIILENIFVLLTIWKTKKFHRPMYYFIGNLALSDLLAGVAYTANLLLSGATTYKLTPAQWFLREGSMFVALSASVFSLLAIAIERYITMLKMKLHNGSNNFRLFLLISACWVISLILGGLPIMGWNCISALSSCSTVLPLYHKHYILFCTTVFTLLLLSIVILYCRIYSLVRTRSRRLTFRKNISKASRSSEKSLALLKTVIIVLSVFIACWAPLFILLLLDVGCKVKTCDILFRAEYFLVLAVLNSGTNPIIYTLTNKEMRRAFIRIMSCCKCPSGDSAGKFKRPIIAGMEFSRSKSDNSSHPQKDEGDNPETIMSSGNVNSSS
Sequence of S1P3 (EDG3) (Q99500 whole entry): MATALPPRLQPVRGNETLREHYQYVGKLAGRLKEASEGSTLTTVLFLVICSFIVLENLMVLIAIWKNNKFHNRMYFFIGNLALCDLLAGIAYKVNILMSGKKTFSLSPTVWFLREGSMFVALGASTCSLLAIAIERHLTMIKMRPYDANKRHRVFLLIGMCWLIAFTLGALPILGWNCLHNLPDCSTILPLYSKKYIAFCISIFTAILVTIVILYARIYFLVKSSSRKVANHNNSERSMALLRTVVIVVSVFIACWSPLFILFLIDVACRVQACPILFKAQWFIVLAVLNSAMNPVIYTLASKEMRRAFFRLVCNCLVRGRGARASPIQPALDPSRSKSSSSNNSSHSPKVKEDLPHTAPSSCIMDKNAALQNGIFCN

Compound	activity as an agonist of S1P1 (S1P1)	inhibition of disease progression as measured by reduced paw swelling [1]	inhibition of disease progression as measured by clinical scores [3]	other results
COCCCCCC1CCc2cc([C@H]3CC[C@](N)(COP(=O)(O)O)C3)ccc2C1 (single isomer, unassigned) [Example 689]	possessed activity as an agonist of S1P			selectivity over S1P3 (S1P3 (EDG3)): selective over S1P3
COc1ccccc1CCC1CCc2cc([C@H]3CC[C@](N)(COP(=O)(O)O)C3)ccc2C1 (single isomer, unassigned) [Example 697]	possessed activity as an agonist of S1P1			
COCCCCC[C@H]1CCc2cc([C@H]3CC[C@](N)(CO)C3)ccc2C1 [Example 672, ((1R,3S)-1-amino-3-((S)-6-(5-methoxypentyl)-5,6,7,8-tetrahydronaphthalen-2-yl)cyclopentyl)methanol]		showed inhibition of disease progression		
CCOCCC[C@@H]1CCc2cc([C@H]3CC[C@](N)(CO)C3)ccc2C1 [Example 679, ((1R,3S)-1-amino-3-((S)-6-(3-ethoxypropyl)-5,6,7,8-tetrahydronaphthalen-2-yl)cyclopentyl)methanol]		showed inhibition of disease progression	showed inhibition of disease progression; also recorded: inhibit disease progression	inhibition of disease progression as measured by reduced clinical scores [2]: showed inhibition of disease progression
COc1ccccc1CC[C@@H]1CCc2cc([C@H]3CC[C@](N)(CO)C3)ccc2C1 [Example 681, ((1R,3S)-1-amino-3-((S)-6-(2-methoxyphenethyl)-5,6,7,8-tetrahydronaphthalen-2-yl)cyclopentyl)methanol]			showed inhibition of disease progression; also recorded: inhibit disease progression	inhibition of disease progression as measured by anti-dsDNA titers (anti-dsDNA antibodies): showed inhibition of disease progression; inhibition of disease progression as measured by kidney histology (kidney histology score): showed inhibition of disease progression

From patent publication US10709719B2, “Substituted bicyclic compounds” (BRISTOL-MYERS SQUIBB COMPANY, priority 2014, dated 2020)
